{
  "source": "paper PMC8071193",
  "about": "“Dual-Target Compounds against Type 2 Diabetes Mellitus: Proof of Concept for Sodium Dependent Glucose Transporter (SGLT) and Glycogen Phosphorylase (GP) Inhibitors” (Pharmaceuticals, 2021)",
  "key": {"SGLT1": {"target": "T1, SGLT1 (Homo sapiens, UniProt P13866)", "T1 construct": "host or cells: TSA201 (Human Embryonal Kidney) cells, lentiviral transduction, puromycin selection", "T1 sequence (P13866 1-664)": "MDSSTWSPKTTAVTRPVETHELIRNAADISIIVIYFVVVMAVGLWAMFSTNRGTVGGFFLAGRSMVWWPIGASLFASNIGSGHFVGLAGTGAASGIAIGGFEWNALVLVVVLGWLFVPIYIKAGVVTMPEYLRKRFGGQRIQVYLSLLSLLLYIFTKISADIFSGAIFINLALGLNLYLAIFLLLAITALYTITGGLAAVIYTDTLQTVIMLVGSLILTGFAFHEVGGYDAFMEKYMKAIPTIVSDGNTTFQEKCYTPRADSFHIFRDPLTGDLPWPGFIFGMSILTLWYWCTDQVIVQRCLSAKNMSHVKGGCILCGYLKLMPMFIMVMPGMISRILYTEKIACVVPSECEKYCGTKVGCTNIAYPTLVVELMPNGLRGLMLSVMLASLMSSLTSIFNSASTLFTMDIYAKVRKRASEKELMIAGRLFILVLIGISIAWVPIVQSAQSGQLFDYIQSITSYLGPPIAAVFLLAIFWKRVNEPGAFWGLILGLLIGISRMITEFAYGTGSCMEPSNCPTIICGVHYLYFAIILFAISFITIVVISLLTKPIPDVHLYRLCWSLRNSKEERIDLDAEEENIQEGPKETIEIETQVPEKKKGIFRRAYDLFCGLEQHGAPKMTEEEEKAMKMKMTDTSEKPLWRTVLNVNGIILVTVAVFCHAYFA", "assay": "SGLT1 inhibition, 2-NBDG glucose uptake in SGLT1-overexpressing TSA201 cells", "format": "cell-based"}, "SGLT2": {"target": "T2, SGLT2 (Homo sapiens, UniProt P31639)", "T2 construct": "host or cells: TSA201 (Human Embryonal Kidney) cells, lentiviral transduction, puromycin selection", "T2 sequence (P31639 1-672)": "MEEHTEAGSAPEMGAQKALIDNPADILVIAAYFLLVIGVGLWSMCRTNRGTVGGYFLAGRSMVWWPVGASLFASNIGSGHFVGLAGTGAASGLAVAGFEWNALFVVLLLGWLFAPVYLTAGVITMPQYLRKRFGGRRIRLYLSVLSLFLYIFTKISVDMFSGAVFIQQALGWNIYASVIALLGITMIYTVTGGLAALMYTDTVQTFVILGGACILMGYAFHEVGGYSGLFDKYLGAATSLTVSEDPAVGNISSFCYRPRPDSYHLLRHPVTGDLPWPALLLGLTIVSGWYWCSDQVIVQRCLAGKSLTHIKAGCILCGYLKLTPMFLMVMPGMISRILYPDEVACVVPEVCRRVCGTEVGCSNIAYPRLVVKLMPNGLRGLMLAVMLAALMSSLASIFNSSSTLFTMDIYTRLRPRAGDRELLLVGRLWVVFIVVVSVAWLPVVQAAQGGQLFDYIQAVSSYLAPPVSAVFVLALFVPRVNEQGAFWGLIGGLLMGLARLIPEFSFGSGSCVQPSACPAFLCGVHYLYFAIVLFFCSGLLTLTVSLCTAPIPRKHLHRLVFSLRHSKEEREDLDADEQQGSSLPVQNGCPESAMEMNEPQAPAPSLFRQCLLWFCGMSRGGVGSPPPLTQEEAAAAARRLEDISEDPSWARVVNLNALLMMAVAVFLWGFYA", "assay": "SGLT2 inhibition, 2-NBDG glucose uptake in SGLT2-overexpressing TSA201 cells", "format": "cell-based", "conditions": "for factor by which the 2-naphthyl derivative is the stronger inhibitor of SGLT2: comparisons 21a–21b and 24a–24b"}, "[1]": {"target": "T3, rabbit muscle glycogen phosphorylase b (rmGPb) (Oryctolagus cuniculus, UniProt P00489)", "T3 construct": "Glycogen phosphorylase b was isolated from rabbit skeletal muscle; from tissue; host or cells: rabbit skeletal muscle", "T3 sequence (P00489 1-843)": "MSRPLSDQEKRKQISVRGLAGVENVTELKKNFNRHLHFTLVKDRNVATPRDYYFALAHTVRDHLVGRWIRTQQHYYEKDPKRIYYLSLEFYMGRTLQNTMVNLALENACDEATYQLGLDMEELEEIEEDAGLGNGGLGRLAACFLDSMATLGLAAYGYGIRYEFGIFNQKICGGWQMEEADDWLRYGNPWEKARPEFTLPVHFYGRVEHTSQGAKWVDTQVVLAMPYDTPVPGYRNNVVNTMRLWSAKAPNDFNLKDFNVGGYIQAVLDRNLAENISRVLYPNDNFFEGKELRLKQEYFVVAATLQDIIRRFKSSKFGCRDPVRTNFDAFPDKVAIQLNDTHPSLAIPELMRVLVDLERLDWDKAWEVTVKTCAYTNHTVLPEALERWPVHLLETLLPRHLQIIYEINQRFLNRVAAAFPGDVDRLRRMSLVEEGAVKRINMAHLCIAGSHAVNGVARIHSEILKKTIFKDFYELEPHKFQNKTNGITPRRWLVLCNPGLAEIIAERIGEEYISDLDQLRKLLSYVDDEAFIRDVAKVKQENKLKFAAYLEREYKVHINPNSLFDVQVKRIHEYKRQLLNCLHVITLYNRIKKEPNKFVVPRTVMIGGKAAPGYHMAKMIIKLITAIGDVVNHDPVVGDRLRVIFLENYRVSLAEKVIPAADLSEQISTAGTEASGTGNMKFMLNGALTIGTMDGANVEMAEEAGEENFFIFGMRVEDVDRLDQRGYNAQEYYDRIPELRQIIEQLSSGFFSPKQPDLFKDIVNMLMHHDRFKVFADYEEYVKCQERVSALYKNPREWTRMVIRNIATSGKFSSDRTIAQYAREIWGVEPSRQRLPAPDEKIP", "assay": "Glycogen phosphorylase b enzyme kinetic inhibition assay (direction of glycogen synthesis)", "format": "biochemical", "description": "The 2-NBDG (2-deoxy-2-[(7-nitro-2,1,3-benzoxadiazol-4-yl)amino]-D-glucose, cat. 11046) was purchased from Cayman Chemical Company (Ann Arbor, MI, USA). Lentivirus for SLC5A1 and SLC5A2 (NM_000343 for SGLT1, and NM-003041 for SGLT2) were obtained from Origene (Rockville, MD, USA). These expression vectors contain a puromycin resistance gene. […] CyQUANT^TM Cell Proliferation Assay Kit (2036547) was from Invitrogen (Carlsbad, CA, USA). Glycogen phosphorylase b was isolated from rabbit skeletal muscle according to the method of Fischer and Krebs.\nEnzyme activity in the direction of glycogen synthesis was assayed. Kinetic data were collected using the muscle phosphorylase b (dephosphorylated, GPb) isoform. […] Enzymatic activities were presented in the form of a double-reciprocal plot (Lineweaver-Burk). The plots were analysed by a non-linear data analysis program. The inhibitor constants (Ki) were determined by secondary plots, replotting the slopes from the Lineweaver-Burk plot against the inhibitor concentrations. The means of standard errors for all calculated kinetic parameters averaged to less than 10% [78, 79]."}, "[2]": {"conditions": "Table 2, TSA-201 cells, NI: no inhibition at 1000 µM, compounds 1-2 used as controls for in-house assay"}, "[3]": {"conditions": "Table 2, NI: no inhibition at 625 µM"}, "[4]": {"conditions": "Table 3, TSA-201 cells, NI: no inhibition at 1000 µM"}},
  "note": "Where two headings read alike, the source gives them in different places.",
  "data": [
    {"smiles": "OCCn1nc([C@@H]2O[C@H](CO)[C@@H](O)[C@H](O)[C@H]2O)nc1Cc1ccccc1", "note": "[19b]", "values": [
      {"measurement": "IC50", "setting": "SGLT1; [2]", "value": "> 1000", "unit": "µM"},
      {"measurement": "SGLT2 inhibition (in words)", "setting": "SGLT2; TSA201 cells, up to 1000 µM", "value": "complete loss of the inhibition"},
      {"measurement": "IC50", "setting": "SGLT2; [2]", "value": "> 1000", "unit": "µM"},
      {"measurement": "IC50", "setting": "[1]; [3]", "value": "> 625", "unit": "µM"}
    ]},
    {"smiles": "OC[C@H]1O[C@@H](c2nc(Cc3ccccc3)n(-c3ccccc3)n2)[C@H](O)[C@@H](O)[C@@H]1O", "note": "[19c]", "values": [
      {"measurement": "IC50", "setting": "SGLT1", "value": "35.5 ± 9.56", "unit": "µM"},
      {"measurement": "IC50", "setting": "SGLT2", "value": "2.44 ± 0.85", "unit": "µM"},
      {"measurement": "IC50", "setting": "[1]; [3]", "value": "> 625", "unit": "µM"}
    ]},
    {"smiles": "OC[C@H]1O[C@@H](n2cc(-c3ccccc3)nn2)[C@H](O)[C@@H](O)[C@@H]1O", "note": "[21a]", "values": [
      {"measurement": "IC50", "setting": "SGLT1; [4]", "value": "167 ± 63.5", "unit": "µM"},
      {"measurement": "IC50", "setting": "SGLT2; [4]", "value": "67.3 ± 10.9", "unit": "µM"}
    ]},
    {"smiles": "OC[C@H]1O[C@@H](n2cc(-c3ccc4ccccc4c3)nn2)[C@H](O)[C@@H](O)[C@@H]1O", "note": "[21b]", "values": [
      {"measurement": "IC50", "setting": "SGLT1; [4]", "value": "127 ± 21.6", "unit": "µM"},
      {"measurement": "IC50", "setting": "SGLT2; [4]", "value": "10.3 ± 2.18", "unit": "µM"},
      {"measurement": "factor by which the 2-naphthyl derivative is the stronger inhibitor of SGLT2", "setting": "SGLT2", "value": "~ 7"}
    ]},
    {"smiles": "OC[C@H]1O[C@@H](c2nc(-c3ccccc3)cs2)[C@H](O)[C@@H](O)[C@@H]1O", "note": "[23a]", "values": [
      {"measurement": "IC50", "setting": "SGLT1; [4]", "value": "> 1000", "unit": "µM"},
      {"measurement": "IC50", "setting": "SGLT2; [4]", "value": "> 1000", "unit": "µM"}
    ]},
    {"smiles": "OC[C@H]1O[C@@H](c2nc(-c3ccc4ccccc4c3)cs2)[C@H](O)[C@@H](O)[C@@H]1O", "note": "[23b]", "values": [
      {"measurement": "IC50", "setting": "SGLT1; [4]", "value": "> 1000", "unit": "µM"},
      {"measurement": "IC50", "setting": "SGLT2; [4]", "value": "> 1000", "unit": "µM"}
    ]},
    {"smiles": "OC[C@H]1O[C@@H](c2nc(-c3ccccc3)c[nH]2)[C@H](O)[C@@H](O)[C@@H]1O", "note": "[24a]", "values": [
      {"measurement": "IC50", "setting": "SGLT1; [4]", "value": "245 ± 42", "unit": "µM"},
      {"measurement": "IC50", "setting": "SGLT2; [4]", "value": "91.04 ± 0.56", "unit": "µM"}
    ]},
    {"smiles": "OC[C@H]1O[C@@H](c2nc(-c3ccc4ccccc4c3)c[nH]2)[C@H](O)[C@@H](O)[C@@H]1O", "note": "[24b, 2-(β-D-glucopyranosyl)-4(5)-(2-naphthyl)-imidazole]", "values": [
      {"measurement": "IC50", "setting": "SGLT1; [4]", "value": "11.9 ± 2.61", "unit": "µM"},
      {"measurement": "IC50", "setting": "SGLT2; [4]", "value": "3.5 ± 0.88", "unit": "µM"},
      {"measurement": "factor by which the 2-naphthyl derivative is the stronger inhibitor of SGLT2", "setting": "SGLT2", "value": "~ 26"}
    ]},
    {"smiles": "OC[C@H]1O[C@@H](c2nnc(-c3ccccc3)[nH]2)[C@H](O)[C@@H](O)[C@@H]1O", "note": "[25a]", "values": [
      {"measurement": "IC50", "setting": "SGLT1; [4]", "value": "125 ± 46.5", "unit": "µM"},
      {"measurement": "IC50", "setting": "SGLT2; [4]", "value": "15 ± 2.74", "unit": "µM"}
    ]},
    {"smiles": "OC[C@H]1O[C@@H](c2nc(-c3ccc4ccccc4c3)n[nH]2)[C@H](O)[C@@H](O)[C@@H]1O", "note": "[25b]", "values": [
      {"measurement": "IC50", "setting": "SGLT1; [4]", "value": "13 ± 2.88", "unit": "µM"},
      {"measurement": "IC50", "setting": "SGLT2; [4]", "value": "17.7 ± 2.32", "unit": "µM"}
    ]},
    {"smiles": "CCOc1ccc(Cc2cc([C@@H]3O[C@H](CO)[C@@H](O)[C@H](O)[C@H]3O)ccc2Cl)cc1", "note": "[compound 2, dapagliflozin, reference compound]", "values": [
      {"measurement": "IC50", "setting": "[1]", "value": "> 625", "unit": "µM"}
    ]},
    {"smiles": "OC[C@H]1O[C@@H](n2cc(Cc3ccccc3)nn2)[C@H](O)[C@@H](O)[C@@H]1O", "note": "[compound 20]", "values": [
      {"measurement": "IC50", "setting": "SGLT1", "value": "101 ± 23.5", "unit": "µM"},
      {"measurement": "IC50", "setting": "SGLT2", "value": "23.2 ± 1.86", "unit": "µM"}
    ]}
  ]
}
